Assay results as given in patent US7951364B2, “CaR receptor as a mediator of migratory cell chemotaxis and/or chemokinesis” (The General Hospital Corporation, priority 2000, dated 2011).

Key:
[1] = molecular target: T1, CaR (Homo sapiens, UniProt P41180); test: Cytosolic calcium changes in purified monocytes (Indo-1/AM, flow cytometry); format: cell-based
T1 construct: endogenous in cells; host or cells: peripheral blood CD14+ monocytes, sorted by FACS
T1 sequence (P41180 20-1078): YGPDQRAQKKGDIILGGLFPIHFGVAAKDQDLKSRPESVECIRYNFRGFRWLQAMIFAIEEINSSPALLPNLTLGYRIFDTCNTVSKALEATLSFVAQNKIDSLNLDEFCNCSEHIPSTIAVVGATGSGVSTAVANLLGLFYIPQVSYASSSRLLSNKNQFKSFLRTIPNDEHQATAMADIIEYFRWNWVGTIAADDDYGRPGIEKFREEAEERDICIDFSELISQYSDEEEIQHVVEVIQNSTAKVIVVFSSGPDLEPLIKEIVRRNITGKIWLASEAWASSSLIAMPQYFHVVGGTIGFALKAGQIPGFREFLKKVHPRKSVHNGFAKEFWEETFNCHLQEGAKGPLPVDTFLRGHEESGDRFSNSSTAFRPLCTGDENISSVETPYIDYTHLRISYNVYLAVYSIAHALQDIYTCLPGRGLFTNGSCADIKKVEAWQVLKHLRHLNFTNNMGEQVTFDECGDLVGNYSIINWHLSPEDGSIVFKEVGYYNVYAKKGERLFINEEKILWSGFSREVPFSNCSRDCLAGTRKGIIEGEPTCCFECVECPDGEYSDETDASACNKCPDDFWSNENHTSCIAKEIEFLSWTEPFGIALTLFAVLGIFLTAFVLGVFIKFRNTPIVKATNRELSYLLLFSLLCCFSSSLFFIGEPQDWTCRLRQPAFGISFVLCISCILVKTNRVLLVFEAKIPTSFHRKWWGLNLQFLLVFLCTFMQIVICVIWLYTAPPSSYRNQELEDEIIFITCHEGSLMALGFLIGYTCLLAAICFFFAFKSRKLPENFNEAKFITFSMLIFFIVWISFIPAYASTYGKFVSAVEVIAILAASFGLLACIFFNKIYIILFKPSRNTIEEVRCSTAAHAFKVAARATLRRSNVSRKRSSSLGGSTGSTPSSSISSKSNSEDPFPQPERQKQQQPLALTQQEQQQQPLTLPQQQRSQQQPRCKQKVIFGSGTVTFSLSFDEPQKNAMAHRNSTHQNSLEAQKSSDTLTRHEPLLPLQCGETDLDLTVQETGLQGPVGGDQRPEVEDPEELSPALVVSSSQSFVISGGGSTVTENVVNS
Method: Preparation of peripheral blood CD14^+ monocytes. Low density cells were isolated from human and mouse peripheral blood using Ficoll-Hypaque (Pharmacia, Piscataway, N.J.). CD14^+ monocytes were purified by sorting on FACSVantage (Becton Dickinson, San Jose, Calif.) based on CD14 expression. Purified cells were incubated in either calcium-free medium (Hanks' Balanced Salt Solution 1×, CellGro, Hermdon. VA) or Iscove's Medium 1×(Mod) (CellGro, Herndon, Va.) which contains 1.5 mM Ca++. […] Cells were incubated for up to 24 hours in 5% CO2 humidified air. Monocytes were then detached from the plate using a cell scraper. All calcium concentrations indicated in the presentation of the data represent the total Ca^++ present in the basal medium plus any added Ca^++.
Cytosolic calcium changes. Purified monocytes were loaded with Indo-1/AM (Molecular Probes, Eugene, Oreg.). Cells were collected on FACSVantage for 0.30 sec to establish a baseline emission value for Indo-1/AM. […] Data acquisition then continued for up to 5 minutes.

[2] = system: human CD34^+ cells; test: In vitro assays of human CD34^+ hematopoietic progenitor cells; format: cell-based; conditions: increased Ca^2+ concentration
Text: Calcium ions effect Hematopoietic Progenitor Cells. We also assessed the effects of calcium, through its interaction with the calcium sensing receptor (CaR) using in vitro assays of human CD34^+ cells. […] Therefore, calcium participates in maintaining candidate stem cells in a primitive, undifferentiated state. […] This was accompanied by a decrease in the level of LTC-ICs in the bone marrow, but an increase in the level of CFU-Cs, with a converse increase in hematopoietic stem cells in is the peripheral blood.

[Ca+2].[Cl-].[Cl-] [Ca^++, calcium chloride]
Increase in cytosolic calcium ([1]; 4.5 mM Ca^++): Sustained increases | Extracellular Ca^++ concentration giving maximal cytosolic Ca^++ response ([1]; monocytes, dose dependent): 4.5 mM | Number of more mature BFU-Es ([2]; p=0.017): decrease | Level of primitive cells measured by LTC-ICs ([2]; p=0.037): increase
